“Also recorded” adds a separate entry of the source.
How the values were obtained:
[1] = system: soleus muscle fibres from CMT2D mice; assay type: cell-based, mouse; conditions: 10 μM NMD670 added to CMT2D fibres, μ-Conotoxin-treated; vs before addition; 12, 30, 80 Hz trains
[2] = system: soleus muscle fibres from CMT2D mice; experiment: Intracellular recordings of action potentials during repeated motor nerve stimulation, isolated soleus nerve-muscle preparations; assay type: cell-based, mouse
healthy volunteers = experiment: Phase I (FIH) clinical trial, safety and tolerability in healthy volunteers; assay type: in vivo, human
Source text: Part A1 tested single doses of NMD670 in a double-blind, randomised, placebo-controlled, partial crossover and dose-escalating design in healthy male subjects (see the WHO International Clinicals Trials Registry Platform study reference NL8692). A total of nine dose levels were investigated in three cohorts of subjects. Each cohort consisted of nine subjects, each subject had three study sessions. Each subject received escalating doses of NMD670 on two occasions and placebo on one occasion, the order will be randomized in a cross-over fashion. Each dose level was randomized in a 6:3 ratio (active vs. placebo). See Table 10 for an overview of the randomization scheme.
Due to this temporary halt and partial unblinding of the study during dose level 7, a new randomization was necessary. After unblinding three subjects in dose level 7, the original randomization for dose 8 and 9 was changed in order to keep the study blinded. […] Therefore, for the remaining 2 doses, a full cross-over design investigating one previously tested dose level was used. The 9 subjects in cohort 3 were randomized to receive the study drug in level 8 and placebo in level 9, or vice versa. To determine the effect of food on the exposure of single oral doses of NMD670, dose level 5 was administered in both the fasted and fed condition. Subjects who received dose level 5 returned for a fourth visit in which they received dose level 5 (or matching placebo) in the fed condition, in the same randomization as the chosen dose level in the fasted condition.
Part A2 of the study investigated the safety, tolerability and pharmacokinetics of NMD670 in 8 healthy female subjects of non-childbearing potential, in a randomized, double-blind, placebo-controlled single dose administration of NMD670. Subjects received 800 mg NMD670. Subjects were randomized in a 6:2 ratio (active vs. placebo).
The following endpoints were determined at time points indicated in the Schedule of Assessments. • Serious adverse events (SAEs) and adverse events (AEs) were collected throughout the study at every study visit. • Concomitant medication • Clinical laboratory tests • Haematology • Chemistry • Urinalysis • Coagulation • Vital signs • Pulse Rate (bpm) • Systolic blood pressure (mmHg) • Diastolic blood pressure (mmHg) • Respiratory rate • ECG • Heart Rate (HR) (bpm), PR, QRS, QT, QTcF • 24-hour Holter recording • Hand grip dynamometry • Grip release profile; time profile from 100% maximum voluntary contraction (MVC) to 5% of the 100% MVC
(§1) NMD670 has been tested in a Phase 1, FIH, single ascending and multiple ascending dose study in healthy volunteers. […] In addition, the Phase 1 FIH study also tested single doses of 400 mg and 1200 mg in 12 MG patients.

MG patients = experiment: Phase 1 FIH study, single doses in MG patients; assay type: in vivo, human
Method: as §1

mouse model of CMT1A = experiment: Stimulated EMG (CMAP decrement) in mouse model of CMT1A; assay type: in vivo
Method: Male and female mice (Jacson Laboratory Strain #:030052) approx. 6-7 months of age at time of study start were used. These genetically modified mice are used as a disease model to study Charcot Marie Tooth (CMT) disease type 1A (CMT1A).
The sodium salt of NMD670 was dissolved in phosphate buffered saline (PBS) to a dose volume of 1 mg/mL. The entire amount of dose-solution was then transferred to a vial labelled A or B (for blinding purposes). The vehicle control solution was PBS and this was transferred to a vial labelled A or B (for blinding purposes). Compound was dosed IP at a volume of 10 mL/kg, from a 1 mg/mL dose solution.
NMD670 or vehicle was administered by IP injection at a volume of 10 mL/kg from a 1 mg/mL dose solution while sedated in the EMG measurement set up. 10 to 15 minutes was allowed to elapse before next step was initiated.
Each mouse was tested prior to intervention with test article, and then tested after IP injection of 10 mg/kg NMD670 or vehicle (PBS). A washout period was then allowed (48 hours), and the mouse was subjected to the same test, but receiving the opposite treatment to that on the first day. All mice thus received both vehicle and NMD670, in a randomized order (FIG. 6).

## C[C@H](Oc1ccc(Br)cc1-c1ccon1)C(=O)O [NMD670, (2S)-2-[4-bromo-2-(1,2-oxazol-3-yl)phenoxy]propanoic acid]
[1]
  EPP amplitude: significant increase; also recorded: small non-significant increase
[2]; 12 Hz, after 10 μM NMD670, 3/47 fibres (before 6/60, 10%)
  fibres unable to sustain action potential generation for the entire stimulus train: 6,4%
[2]; 12 Hz, after addition of 10 μM NMD670 (before 3.6)
  average action potential excitation failure: 1.9%
[2]; 30 Hz, after 10 μM NMD670, 3/47 fibres (before 9/60, 15%)
  fibres unable to sustain action potential generation for the entire stimulus train: 6.4%
[2]; 30 Hz, after addition of 10 μM NMD670 (before 4.9)
  average action potential excitation failure: 0.8%
[2]; 80 Hz, after 10 μM NMD670, 20/47 fibres (before 33/60, 55%)
  fibres unable to sustain action potential generation for the entire stimulus train: 42.5%
[2]; 80 Hz, after addition of 10 μM NMD670 (before 29.6)
  average action potential excitation failure: 20.4%
Healthy volunteers; 400 mg BID, healthy volunteers
  tolerability of maximum repeated dose: well tolerated
Healthy volunteers; 1200 mg once a day, mild in intensity, resolved spontaneously within a few hours
  healthy subjects with myotonic symptoms: 2
Healthy volunteers; 1600 mg single dose, one healthy subject, spontaneously and fully resolved within hours
  adverse event of myotonia, intensity: moderate in intensity; also recorded: moderate severity
Healthy volunteers; Phase 1, healthy subjects, single doses 50 to 1600 mg
  serious or severe adverse effects: No serious or severe adverse effects; also recorded: No serious adverse reactions
Healthy volunteers; Phase 1 FIH study, TEAE incidence similar between NMD670 and placebo
  overall safety and tolerability: safe and well tolerated
Healthy volunteers; Phase 1 Part A
  subject discontinuations: no subject discontinuations
Healthy volunteers; Phase 1 Part A, 35 subjects
  total AEs reported: 70
Healthy volunteers; Phase 1 Part A, of 70 AEs, number (%)
  AEs at least possibly drug related: 47 (67%)
Healthy volunteers; Phase 1 clinical study, not considered clinically significant
  serum uric acid: dose-dependent decrease
Healthy volunteers; single doses, 1200 mg and 1600 mg
  transient myotonia, relation to dose: reported at the highest dose levels tested
MG patients; patients with MG, single doses of 400 mg and 1200 mg
  myotonia: not observed
MG patients; single dose of 400 mg
  symptoms of MG: statistically significant and clinically relevant improvements of symptoms
Mouse model of CMT1A; 10 mg/kg IP, n=8
  CMAP decrement, NMD670 vs vehicle group after treatment: not significantly different
Mouse model of CMT1A; 40 Hz, 10 mg/kg IP (sodium salt in PBS), vehicle 8.6
  recovery of CMAP decrement after intervention: 15.2 % point

Reference: patent publication US20260240817A1, “COMPOSITIONS AND METHODS FOR TREATING CHARCOT-MARIE-TOOTH DISEASE” (priority 2023, published 2026)
